Test results taken from PubChem BioAssay AID2060502 (Molecular Pharmacology Branch, DTP, NCI, 2025).

System: 885724-159-R-J1-PDC complex spheroid viability
Assay: Anticancer human tumor 885724-159-R-J1-PDC patient-derived pancreatic adenocarcinoma cell line growth inhibition [GQUAD]
Details: for IC50: curve of first compound; for viability, T/C: stronger effect = lower value
Procedure, shortened: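 Viability of tumor cells grown as complex spheroids with endothelial and stromal cells, exposed to drug combinations. Top concentration at or near clinical Cmax (else 10 microM), diluted in half-log increments.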

[1] = second compound 0.0316 µM, first compound 0.0316 µM
[2] = second compound 0.0316 µM, first compound 0.1 µM
[3] = second compound 0.0316 µM, first compound 0.316 µM
[4] = second compound 0.0316 µM, first compound 1 µM
[5] = second compound 0.0316 µM, first compound 3.16 µM
[6] = second compound 0.0316 µM, first compound 10 µM
[7] = second compound 0.1 µM, first compound 0.0316 µM
[8] = second compound 0.1 µM, first compound 0.1 µM
[9] = second compound 0.1 µM, first compound 0.316 µM
[10] = second compound 0.1 µM, first compound 1 µM
[11] = second compound 0.1 µM, first compound 3.16 µM
[12] = second compound 0.1 µM, first compound 10 µM
[13] = second compound 0.316 µM, first compound 0.0316 µM
[14] = second compound 0.316 µM, first compound 0.1 µM
[15] = second compound 0.316 µM, first compound 0.316 µM
[16] = second compound 0.316 µM, first compound 1 µM
[17] = second compound 0.316 µM, first compound 3.16 µM
[18] = second compound 0.316 µM, first compound 10 µM
[19] = second compound 1 µM, first compound 0.0316 µM
[20] = second compound 1 µM, first compound 0.1 µM
[21] = second compound 1 µM, first compound 0.316 µM
[22] = second compound 1 µM, first compound 1 µM
[23] = second compound 1 µM, first compound 3.16 µM
[24] = second compound 1 µM, first compound 10 µM
[25] = second compound 3.16 µM, first compound 0.0316 µM
[26] = second compound 3.16 µM, first compound 0.1 µM
[27] = second compound 3.16 µM, first compound 0.316 µM
[28] = second compound 3.16 µM, first compound 1 µM
[29] = second compound 3.16 µM, first compound 3.16 µM
[30] = second compound 3.16 µM, first compound 10 µM
[31] = second compound 10 µM, first compound 0.0316 µM
[32] = second compound 10 µM, first compound 0.1 µM
[33] = second compound 10 µM, first compound 0.316 µM
[34] = second compound 10 µM, first compound 1 µM
[35] = second compound 10 µM, first compound 3.16 µM
[36] = second compound 10 µM, first compound 10 µM
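Further: spheroids exposed to agents for seven days before readout.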
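Wherever viability, T/C is given: percent of vehicle control viability where 100% = DMSO wells.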

Compound: O=c1[nH]cc(F)c(=O)[nH]1 + Cc1[nH]c2ccc(F)cc2c1-c1nc2c3cccnc3c3ncccc3c2[nH]1
- IC50 (second compound 0.0316 µM): > 10000 nM
- IC50 (second compound 0.1 µM): > 10000 nM
- IC50 (second compound 0.316 µM): > 10000 nM
- IC50 (second compound 1 µM): > 10000 nM
- IC50 (second compound 3.16 µM): < 31.6 nM
- IC50 (second compound 10 µM): > 10000 nM
- viability, T/C [1]: 101%
- viability, T/C [2]: 103%
- viability, T/C [3]: 98.5%
- viability, T/C [4]: 95.9%
- viability, T/C [5]: 97.1%
- viability, T/C [6]: 86%
- viability, T/C [7]: 103%
- viability, T/C [8]: 89.3%
- viability, T/C [9]: 91%
- viability, T/C [10]: 93.5%
- viability, T/C [11]: 93.7%
- viability, T/C [12]: 86.3%
- viability, T/C [13]: 107%
- viability, T/C [14]: 94.7%
- viability, T/C [15]: 81.6%
- viability, T/C [16]: 82%
- viability, T/C [17]: 97.5%
- viability, T/C [18]: 95.6%
- viability, T/C [19]: 76.4%
- viability, T/C [20]: 74.7%
- viability, T/C [21]: 75%
- viability, T/C [22]: 70.7%
- viability, T/C [23]: 68.3%
- viability, T/C [24]: 69.9%
- viability, T/C [25]: 39.2%
- viability, T/C [26]: 42.6%
- viability, T/C [27]: 41.3%
- viability, T/C [28]: 41.6%
- viability, T/C [29]: 45.1%
- viability, T/C [30]: 42.3%
- viability, T/C [31]: 66.1%
- viability, T/C [32]: 77.2%
- viability, T/C [33]: 70.3%
- viability, T/C [34]: 71.3%
- viability, T/C [35]: 81.3%
- viability, T/C [36]: 62.9%

Compound: COc1ccc([C@@H](O)c2cc(-c3ncnc4cc(N5CCOCC5)ccc34)c(F)cc2Cl)nn1 + Cc1cnc(CNC(=O)c2c(=O)c3ccc(N4CCCN(C)CC4)nc3n3c2sc2ccccc23)cn1
- IC50 (second compound 0.0316 µM): 5430 nM
- IC50 (second compound 0.1 µM): 6180 nM
- IC50 (second compound 0.316 µM): 4570 nM
- IC50 (second compound 1 µM): 4180 nM
- IC50 (second compound 3.16 µM): 2870 nM
- IC50 (second compound 10 µM): 2360 nM
- viability, T/C [1]: 107%
- viability, T/C [2]: 112%
- viability, T/C [3]: 91.5%
- viability, T/C [4]: 92.3%
- viability, T/C [5]: 61.6%
- viability, T/C [6]: 34.9%
- viability, T/C [7]: 109%
- viability, T/C [8]: 96.7%
- viability, T/C [9]: 88.1%
- viability, T/C [10]: 88.8%
- viability, T/C [11]: 67.5%
- viability, T/C [12]: 37%
- viability, T/C [13]: 104%
- viability, T/C [14]: 98.9%
- viability, T/C [15]: 102%
- viability, T/C [16]: 82.9%
- viability, T/C [17]: 58.8%
- viability, T/C [18]: 32.9%
- viability, T/C [19]: 93.5%
- viability, T/C [20]: 81.5%
- viability, T/C [21]: 75.9%
- viability, T/C [22]: 75.7%
- viability, T/C [23]: 51.9%
- viability, T/C [24]: 35.1%
- viability, T/C [25]: 78.6%
- viability, T/C [26]: 71.2%
- viability, T/C [27]: 70.4%
- viability, T/C [28]: 62.4%
- viability, T/C [29]: 49.9%
- viability, T/C [30]: 24.6%
- viability, T/C [31]: 73.2%
- viability, T/C [32]: 77.9%
- viability, T/C [33]: 67.6%
- viability, T/C [34]: 59.7%
- viability, T/C [35]: 47.5%
- viability, T/C [36]: 21.2%

Compound: C=CCn1c(=O)c2cnc(Nc3ccc(N4CCN(C)CC4)cc3)nc2n1-c1cccc(C(C)(C)O)n1 + Cc1[nH]c2ccc(F)cc2c1-c1nc2c3cccnc3c3ncccc3c2[nH]1
- IC50 (second compound 0.0316 µM): > 10000 nM
- IC50 (second compound 0.1 µM): > 10000 nM
- IC50 (second compound 0.316 µM): > 10000 nM
- IC50 (second compound 1 µM): 558 nM
- IC50 (second compound 3.16 µM): < 31.6 nM
- IC50 (second compound 10 µM): 455 nM
- viability, T/C [1]: 88.7%
- viability, T/C [2]: 87.8%
- viability, T/C [3]: 71.1%
- viability, T/C [4]: 63.7%
- viability, T/C [5]: 68.8%
- viability, T/C [6]: 73.9%
- viability, T/C [7]: 90.3%
- viability, T/C [8]: 90%
- viability, T/C [9]: 84.3%
- viability, T/C [10]: 79.6%
- viability, T/C [11]: 63.5%
- viability, T/C [12]: 71.8%
- viability, T/C [13]: 83.1%
- viability, T/C [14]: 83.1%
- viability, T/C [15]: 68.7%
- viability, T/C [16]: 57.6%
- viability, T/C [17]: 74%
- viability, T/C [18]: 67.1%
- viability, T/C [19]: 70.9%
- viability, T/C [20]: 55.3%
- viability, T/C [21]: 52.1%
- viability, T/C [22]: 49.9%
- viability, T/C [23]: 50.9%
- viability, T/C [24]: 41.3%
- viability, T/C [25]: 12.9%
- viability, T/C [26]: 8.26%
- viability, T/C [27]: 11.1%
- viability, T/C [28]: 5.9%
- viability, T/C [29]: 9.96%
- viability, T/C [30]: 8.31%
- viability, T/C [31]: 63.5%
- viability, T/C [32]: 58.5%
- viability, T/C [33]: 47.3%
- viability, T/C [34]: 47%
- viability, T/C [35]: 50%
- viability, T/C [36]: 38.1%

Compound: Cc1[nH]c2ccccc2c1CCNCc1ccc(/C=C/C(=O)NO)cc1 + Cc1[nH]c2ccc(F)cc2c1-c1nc2c3cccnc3c3ncccc3c2[nH]1
- IC50 (second compound 0.0316 µM): 271 nM
- IC50 (second compound 0.1 µM): 305 nM
- IC50 (second compound 0.316 µM): 281 nM
- IC50 (second compound 1 µM): 213 nM
- IC50 (second compound 3.16 µM): < 0.999 nM
- IC50 (second compound 10 µM): 226 nM
- viability, T/C (second compound 0.0316 µM, first compound 0.000999 µM): 87%
- viability, T/C (second compound 0.0316 µM, first compound 0.00316 µM): 99%
- viability, T/C (second compound 0.0316 µM, first compound 0.00999 µM): 93.4%
- viability, T/C [1]: 98.2%
- viability, T/C (second compound 0.0316 µM, first compound 0.0999 µM): 106%
- viability, T/C [3]: 42.8%
- viability, T/C (second compound 0.1 µM, first compound 0.000999 µM): 95.9%
- viability, T/C (second compound 0.1 µM, first compound 0.00316 µM): 90.3%
- viability, T/C (second compound 0.1 µM, first compound 0.00999 µM): 87.8%
- viability, T/C [7]: 95%
- viability, T/C (second compound 0.1 µM, first compound 0.0999 µM): 99.6%
- viability, T/C [9]: 48.5%
- viability, T/C (second compound 0.316 µM, first compound 0.000999 µM): 101%
- viability, T/C (second compound 0.316 µM, first compound 0.00316 µM): 77.9%
- viability, T/C (second compound 0.316 µM, first compound 0.00999 µM): 83.1%
- viability, T/C [13]: 81.2%
- viability, T/C (second compound 0.316 µM, first compound 0.0999 µM): 78.9%
- viability, T/C [15]: 46.4%
- viability, T/C (second compound 1 µM, first compound 0.000999 µM): 75.5%
- viability, T/C (second compound 1 µM, first compound 0.00316 µM): 60.8%
- viability, T/C (second compound 1 µM, first compound 0.00999 µM): 66.4%
- viability, T/C [19]: 57.8%
- viability, T/C (second compound 1 µM, first compound 0.0999 µM): 82.2%
- viability, T/C [21]: 40.3%
- viability, T/C (second compound 3.16 µM, first compound 0.000999 µM): 18.1%
- viability, T/C (second compound 3.16 µM, first compound 0.00316 µM): 13.1%
- viability, T/C (second compound 3.16 µM, first compound 0.00999 µM): 19.2%
- viability, T/C [25]: 11.5%
- viability, T/C (second compound 3.16 µM, first compound 0.0999 µM): 21.2%
- viability, T/C [27]: 31.6%
- viability, T/C (second compound 10 µM, first compound 0.000999 µM): 68.1%
- viability, T/C (second compound 10 µM, first compound 0.00316 µM): 75.2%
- viability, T/C (second compound 10 µM, first compound 0.00999 µM): 64%
- viability, T/C [31]: 69.7%
- viability, T/C (second compound 10 µM, first compound 0.0999 µM): 81.6%
- viability, T/C [33]: 41.2%
